Measurements published in US8993527B2, “Methods, compositions, and formulations for preventing or reducing adverse effects in a patient” (Pericor Therapeutics, Inc., priority 2005, dated 2015).
Read-outs that look alike come from different tables or passages of the source.

Tests used:
[1] = system: patients undergoing CABG surgery; assay type: in vivo; details: 0.05 mg/kg/min
mast cells = assay: AICA riboside: mast cell leukotriene C4 release; assay type: cell-based, mouse; details: 100 μM pretreatment for six days
[2] = system: pentylene tetrazol-induced seizures; assay: Suppression of pentylene tetrazol-induced seizures; assay type: in vivo, rat; details: 2000 mg/kg (total dose) intraperitoneal
[3] = system: patients undergoing CABG surgery; assay type: in vivo
Experimental: All patients from all clinical trials were included: a total of 4043 patients undergoing CABG surgery, evaluable for efficacy, and randomized to receive either placebo (n=2031) or acadesine (0.1 mg-kg^−1-min^−1; n=2012) by intravenous infusion for 7 continuous hours and via the cardioplegia solution.
Individual patient data were collected prospectively using standardized forms and methods and double-data entry. A general parametric approach and analysis-by-patient meta-analysis were used, including both fixed effects and random effects models. Inclusion and exclusion criteria, general methodology, and outcome assessment techniques were similar for all trials.
Meta-analysis included all patients undergoing CABG surgery in the United States, Canada, and Europe who had received acadesine at a dose of 0.1 mg-kg^1min^1. No patients satisfying these criteria were excluded. All 5 studies were randomized, placebo controlled, double blinded, and performed with approval from the 81 participating McSPI institutions and with patient informed consent. Inclusion and exclusion criteria, general methods, and outcome assessment techniques were similar for all trials; with several exceptions (Table 1). […] For all patients, blinded study drug (acadesine or placebo) was administered intravenously, starting approximately 15 minutes before induction of anesthesia and continuing for a total of 7 hours to include the intraoperative (prebypass and postbypass) and immunediate postoperative (into the intensive care unit) periods.
Prior to surgery, investigators ascertained cardiac history and recorded cardiac catheterization information. The use of agents potentially affecting endogenous adenosine concentration (which could complicate the analysis of efficacy) was restricted, including dipyridamole, theophylline, adenosine, and pentoxifylline. All chronic cardiovascular medications, including nitrates, β-blockers, and calcium channel blockers, were continued until the time of surgery. During surgery, but prior to bypass, the usual monitors wore applied, anesthetic techniques were standardized, and hemodynamic variables (blood pressure, heart rate) were to be maintained within specific boundaries for trials 1013, 1016, and 1023; for trials […], guidelines for anesthetic use and hemodynamic control were recommended. For all studies, prophylactic use of cardiovascular agents having potential anti-ischemic properties (nitrates, calcium channel Mockers) was specifically excluded to avoid confounding data interpretation. During cardiopulmonary bypass, neither the surgical technique nor bypass procedures (including cardioplegia administration) were controlled for the phase 3 trials, and bypass typically was conducted using a membrane oxygenator and arterial filter with hemodilution and moderate systemic hypothermia. Following bypass, the use of inotropic and vasodilating agents (excluding the prophylactic use of anti-ischemic medications) and treatment of clinically detected ischemia were not controlled; all medications administered were recorded.
For all studies, the primary outcome, MI, and other secondary outcomes were ascertained and validated by IREF Coordinating Center investigators who were blinded to patient identity and group assignment. Secondary outcomes included cardiac death, stroke, life-threatening dysrhythmia, and severe heart failure (Table 1). For MI, repeated electrocardiograms (ECGs) were coded centrally by core investigators using Minnesota Code criteria. Creatine kinase-MB (CK-M13) concentrations were sampled approximately 18 times during the first 4 postoperative days and, for phase 3 studies, were analyzed centrally using an immunoenzymetric assay (Hybritech Tandem-E CK-MB II, SmithKline Beecham, Van Nuys, Calif.). The presence of infarction at autopsy was based on pathologic data from the respective institution and confirmed centrally by the Endpoint Committee.

ischemic rat hearts = assay: Rat heart ischemia model: tissue adenosine levels; assay type: in vivo; details: intraperitoneal; hearts excised after 60 minutes, incubated 60 minutes at 37° C.
Experimental: Male rats were injected intraperitonealy with either the AICA riboside analog, AICA riboside or saline, as a control. After 60 minutes, the hearts were excised and incubated at 37° C. for a further 60 minutes. Tissue extracts were prepared and analyzed for adenosine by high performance liquid chromatography (HPLC).

[4] = target: T1, purified pig heart adenosine kinase (Sus scrofa, UniProt A0A5G2R0F5); assay: Adenosine kinase activity; assay type: biochemical; details: 0.5 μM [U14C] adenosine, 1 mM ATP, 20 minutes at 37° C.
T1 construct: 0.1 μg of purified pig heart adenosine kinase; from tissue; host or cells: pig heart
T1 sequence (A0A5G2R0F5 1-362): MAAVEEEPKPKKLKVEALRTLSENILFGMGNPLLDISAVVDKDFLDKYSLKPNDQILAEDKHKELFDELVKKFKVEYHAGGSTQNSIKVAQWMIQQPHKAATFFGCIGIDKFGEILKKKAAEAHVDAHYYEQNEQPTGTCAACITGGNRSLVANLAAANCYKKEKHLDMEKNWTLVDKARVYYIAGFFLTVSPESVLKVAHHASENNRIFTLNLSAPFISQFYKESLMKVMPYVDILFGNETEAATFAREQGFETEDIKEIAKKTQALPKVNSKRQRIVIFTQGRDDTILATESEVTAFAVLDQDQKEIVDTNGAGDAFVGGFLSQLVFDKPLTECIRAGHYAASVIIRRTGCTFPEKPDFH
Experimental: Inhibition of enzyme activity was determined using a 0.1 ml assay mixture containing 50 mM Tris-maleate, pH 7.0, 0.1% (w/v) BSA, 1 mM ATP, 1 mM MgCl2, 0.5 μM [U^14 C] adenosine (500 mCi/mmol) and 0.1 μg of purified pig heart adenosine kinase. Different concentrations of test compound were incubated in the assay mixture for 20 minutes at 37° C. From each reaction mixture, 20 μl portions were removed and spotted on 2^2 pieces of Whatman DE81 filter paper. The papers were then washed to remove [^14 C] adenosine in 1 mM ammonium formate followed by deionized water and finally 95% ethanol. The papers were dried, and [^14C] AMP measured by scintillation counting. Activities were determined from the amount of [^14C] AMP formed.

[5] = Phase 2 CABG trial: plasma AICA riboside concentrations and clearance; assay type: in vivo; details: human, intravenous, low and high doses, pre- and post-bypass, read-out: total plasma clearance (CLp) (converted)
Experimental: 10. Plasma Levels. […] Individual values and group means were tabulated and drug clearance calculated. Dose proportionality was assessed.
The data are also presented graphically in FIG. 18.

[6] = death following myocardial infarction, acadesine vs placebo (n = 98)
[7] = patients with myocardial infarction, Acadesine (n = 71)
[8] = patients with myocardial infarction, Acadesine (n = 71), number of patients

NC(=O)c1ncn([C@@H]2O[C@H](CO)[C@@H](O)[C@H]2O)c1N [1 (1-110), 5-amino-1-β-D-ribofuranosyl-imidazole-4-carboxamide]
effect of low-dose acadesine on outcome [1]: no significant effect on any outcome measure
Leukotriene C4 release reduced by (mast cells): 75%
latency to seizure [2]: dramatic prolongation of latency to seizure
decrease of the incidence of perioperative myocardial infarction ([3]; 0.1 mg/kg/min for 7 hours vs placebo): 27%
cardiac death following MI through postoperative day 4 ([3]; acadesine group (1 death/71 MIs), placebo 13.3%): 1.4%
incidence of CVA ([3]; acadesine group (32/2012), placebo 2.3%): 1.6%
fewer patients with an adverse outcome ([3]; acadesine group vs placebo, combined outcomes): 41
incidence of infarction ([3]; acadesine group, placebo 4.9%): 3.6%
cardiac deaths through postoperative day 4, number ([3]; acadesine group, placebo 26): 13
Cardiac death at 28 days, patients ([3]; acadesine group, placebo 34): 20
patients with myocardial infarction, number ([3]; acadesine group, placebo 98): 71
autopsy-defined MI ([3]; acadesine patients, placebo 16/19): 2/11
decrease of cardiac death following MI through postoperative day 4 ([3]; acadesine vs placebo): 89%
decrease of the incidence of cardiac death through postoperative day 4 ([3]; acadesine vs placebo): 50%
decrease of the incidence of combined outcome (MI, stroke, or cardiac death) ([3]; acadesine vs placebo): 26%
noncardiac death ([3]; acadesine vs placebo): no effect
reduction of the use of ventricular-assistance devices for severe postoperative heart failure ([3]; acadesine vs placebo): approximately one third
post-MI deaths ([3]; acadesine-treated patients, placebo 21/98): 4/71
cardiac death in the first 4 days in patients without MI or not evaluable for MI ([3]; acadesine-treated, placebo 0.7%): 0.6%
Cardiac death by postoperative day 4, Reduction [3, 6]: 89%
Cardiac death by postoperative day 28, Reduction [3, 6]: 79%
Death by postoperative day 4, Reduction [3, 6]: 79%
Death by postoperative day 28, Reduction [3, 6]: 74%
cardiac failure, immediately life-threatening or prolonging hospitalization ([3]; human, in vivo, 7 h): 2.1%
incidence of serious adverse events ([3]; human, in vivo, 7 h): 9.1%
use of an intraaortic balloon pump ([3]; in vivo): 2.4%
Cardiac death by postoperative day 4, (%) [3, 7]: 1 (1) %
Cardiac death by postoperative day 28, (%) [3, 7]: 4%
Death by postoperative day 4, (%) [3, 7]: 3%
Death by postoperative day 28, (%) [3, 7]: 6%
Cardiac death by postoperative day 4, No. [3, 8]: 1 (1)
Cardiac death by postoperative day 28, No. [3, 8]: 3
Death by postoperative day 4, No. [3, 8]: 2
Death by postoperative day 28, No. [3, 8]: 4
reduction in post-MI death ([3]; secondary analysis, acadesine vs placebo): 74%
effect size for MI ([3]; trial 1016 (n=414)): 73%
rate of stroke ([3]; trial 1016, placebo 4.2%): 0.5%
combined adverse cardiovascular outcome (MI, CVA or cardiac death) ([3]; trial 1016, placebo […]): 1.9%
infarction rate (Q wave and CK-MB or autopsy) ([3]; trial 1016, placebo […]): 1.5%
effect size for MI ([3]; trial 1017 (n=821)): 23%
effect size for MI ([3]; trial 1024 (n=2698)): 22%
Tissue Adenosine Levels (% Increase vs. Saline) (ischemic rat hearts): 30%
IC50 [4]: > 5 mM
clearance [5]: ~20 mL/min/kg
